Laboratory results published in ChEMBL document CHEMBL1681642, “Synthesis and biological activity of novel MIF antagonists” (Bioorg Med Chem Lett, 2011).

What was measured:
[1] = tested on: PBMC; assay: Antiinflammatory activity in human PBMC assessed as inhibition of MIF-induced TNFalpha production at 100 uM after 21 hrs by ELISA; format: functional
[2] = Cytotoxicity against human PBMC assessed as cell viability measured during MIF secretion assay at 100 uM after 21 hrs by MTS assay; format: cell-based; conditions: PBMC (peripheral blood mononuclear cells)
[3] = tested on: PBMC; assay: Antiinflammatory activity in human PBMC assessed as inhibition of MIF-induced IL-6 production at 100 uM after 21 hrs by ELISA; format: functional
[4] = tested on: PBMC; assay: Antiinflammatory activity in human PBMC assessed as inhibition of MIF-induced IL1-beta production at 100 uM after 21 hrs by ELISA; format: functional
[5] = molecular target: T1, Macrophage migration inhibitory factor (Homo sapiens) (UniProt P14174); assay: Inhibition of human purified MIF tautomerase activity at 10 uM after 30 mins
T1 sequence (whole entry): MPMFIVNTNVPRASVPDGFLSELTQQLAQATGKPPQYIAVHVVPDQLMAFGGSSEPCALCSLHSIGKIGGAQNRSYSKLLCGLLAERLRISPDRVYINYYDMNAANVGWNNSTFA

[6] = molecular target: T1, Macrophage migration inhibitory factor (Homo sapiens); assay: Inhibition of MIF in human PBMC assessed as MIF secretion at 100 uM after 5 hrs by ELISA
[7] = Cytotoxicity against human PBMC assessed as cell viability measured during cytokines production assay at 100 uM after 21 hrs by MTS assay; format: cell-based; conditions: PBMC (peripheral blood mononuclear cells)
[8] = tested on: PBMC; assay: Antiinflammatory activity in human PBMC assessed as inhibition of MIF-induced IL-6 production at 30 uM after 21 hrs by ELISA; format: functional
[9] = molecular target: T1, Macrophage migration inhibitory factor (Homo sapiens); assay: Inhibition of human purified MIF tautomerase activity at 100 uM after 30 mins
[10] = molecular target: T1, Macrophage migration inhibitory factor (Homo sapiens); assay: Inhibition of MIF in human PBMC assessed as MIF secretion at 10 uM after 5 hrs by ELISA

Row | inhibition [5] | inhibition [6] | inhibition [9] | inhibition [10] | SMILES | inhibition at 100 µM [1] | cytotoxicity at 21 h, 100 µM [2] | inhibition at 100 µM [3] | inhibition at 100 µM [4] | cytotoxicity at 21 h, 100 µM [7] | inhibition at 30 µM [8]
1 | 10% | 82% | 72% | 38% | COc1ccc(C2CC(c3ccoc3)=NO2)cc1 (stereo not given) | 2.5% | 0% | 0% | 13% | 12% | 0%
2 | 0% | 36% | 18% | 0% | O=C1CCCN1C1CC(c2ccoc2)=NO1 (stereo not given) | 28% | 0% | 49% | 22% | 5% | 43%
3 | 55% | 0% | 100% | 0% | Fc1ccc(C2CC(c3cn(-c4cccc(C(F)(F)F)c4)c4ccccc34)=NO2)cc1 (stereo not given) | 0% | 0% | 4% | 0% | 1% | 0%
4 | 4% | 5% | 51% | 20% | FC(F)(F)c1ccc(C2CC(c3cn(-c4cccc(C(F)(F)F)c4)c4ccccc34)=NO2)cc1 (stereo not given) | 2% | 0% | 6% | 15% | 6% | 3%
